Measured values reported in paper PMC12523843, “Kuwanon A Targeted YWHAB in Hepatocellular Carcinoma Cells to Inhibit the Raf/MEK/ERK Signaling Pathway” (Cells, 2025).

Legend:
[1] = system: N-cadherin and E-cadherin; assay: Western blot of EMT markers; type: cell-based, human; details: 48 h
Protocol: Cells were harvested using a cell scrape and washed three times with PBS buffer, then lysed on ice in RIPA lysis buffer (Beyotime, Shanghai, China). Protein concentration was determined using a BCA protein assay kit (Beyotime, Shanghai, China). Subsequently, 60 µg of protein was mixed with 5× loading buffer and heated in a 100 °C water bath for 15 min. The samples were subjected to SDS-PAGE electrophoresis, followed by transfer onto a PVDF membrane (Millipore, Darmstadt, Germany). The membrane was blocked with 5% BSA for 2 h at room temperature and incubated sequentially with primary and HRP-conjugated secondary antibodies. Finally, signal detection was performed using an ECL detection system (Clinx, Shanghai, China).

[2] = system: MHCC97 H cells injected into the liver; assay: Orthotopic hepatocellular carcinoma xenograft survival; type: in vivo, BALB/c-nu mice; details: 30 mg/kg intraperitoneal, every two days, 45 days
Source text: Thirty-six female BALB/c-nu mice, four weeks old (supplied by Slike Jingda Laboratory Animal Co., Ltd., Changsha, China; Animal qualification number: SCXK-2019-0004), were housed in an SPF room. […] Therefore, female mice were selected for this study; 12 mice were used to establish the hepatocellular carcinoma xenografts. MHCC97 H cells (1 × 10^5 cells) were slowly injected into the left lobe of the mouse liver after being anesthetized with isoflurane. Three days later, the mice received intraperitoneal injections of KA (30 mg/kg) every two days for 45 days. Control mice were administered DMSO injections. Recorded the survival status of the animals. Prior to liver collection, the mice were anesthetized with isoflurane to minimize pain and euthanized by cervical dislocation. Ethics approval serial number: IACUC-20240613-03. Animal experiments were conducted in accordance with the Guide for the Care and Use of Laboratory Animals (Ministry of Science and Technology of China, 2006).

[3] = system: HCC cells (MHCC97 H and SMMC 7721); assay: MTT cell proliferation assay; type: cell-based, human; details: 1–7 days
Protocol: Cell viability was assessed using MTT experiments. Cells, together with KA, were seeded into 96-well plates at a density of 2000 cells per well with three replicates per condition. DMSO was used as a control. At designated time points, 20 μL of MTT (Sigma, St. Louis, MO, USA) solution was added to each well and incubated for 3 h. After removing the culture medium, 200 μL of DMSO was added to dissolve the formazan crystals. The absorbance was then measured using a microplate reader at a wavelength of 560 nm.

[4] = system: HCC cells (MHCC97 H and SMMC 7721); assay: EdU staining proliferation assay; type: cell-based, human
Protocol: EdU staining was employed to assess cell proliferation following the manufacturer’s guidelines (Beyotime, Shanghai, China). A total of 2 × 10^4 cells, together with KA or DMSO, were seeded into 24-well plates and cultured for 48 h. Subsequently, the cells were incubated with […] EDU for 2 h, followed by fixation with 4% PFA for 15 min, permeabilization with 0.3% Triton X-100 for 10 min, and reaction with Click reaction cocktails for 30 min. Finally, the nuclei were stained with DAPI for 30 min at room temperature before microscopic examination.

[5] = system: HCC cells (MHCC97 H and SMMC 7721); assay: Colony formation assay; type: cell-based, human
Protocol: Using a colony formation assay, the effect of KA on the colony-forming ability of HCC cells was evaluated. A total of 1000–2000 cells, along with KA, were seeded into each well of a six-well plate. During this period, fresh culture media and KA were replaced multiple times. After 2 to 3 weeks of incubation, the colonies were stained with crystal violet (Beyotime, Shanghai, China) and subsequently quantified in each well using ImageJ 1.52a software.

[6] = system: HCC cells (MHCC97 H and SMMC 7721); assay: Cell wound healing assay; type: cell-based, human; details: 48 h, vs DMSO
Protocol: We seeded the cells in 6-well plates and allowed them to adhere and grow to full confluence. Then, we gently scratched the cell monolayer in a straight line using a sterile pipette tip. We rinsed the wells with PBS to remove detached cells and debris. We captured bright-field images of the scratched area at baseline (0 h). We replaced the medium with DMEM containing KA or DMSO and continued incubation. We re-imaged the same wound areas at 24 h and 48 h post-scratch. We quantified cell migration by measuring wound closure (%) over time using image analysis software.

[7] = system: HCC cells (MHCC97 H and SMMC 7721); assay: Flow cytometry cell cycle analysis, result stated for HCC cells; type: cell-based, human; details: 48 h
Protocol: Cells were digested, centrifuged, and resuspended in PBS buffer following 48 h of treatment with either KA or DMSO. Prior to cell cycle analysis, the cells were fixed in 75% ethanol for a minimum of 24 h, followed by labeling with PI and RNase (Beyotime, Shanghai, China). Subsequently, the cells were analyzed using flow cytometry. Each group consisted of three replicates.

YWHAB = target: T1, YWHAB (Homo sapiens, UniProt P31946); assay: Epoxy-activated Sepharose 6B pull-down; type: binding; parameters: host or cells: HEK 293T; details: KA immobilized on Sepharose 6B, HEK 293T overexpressing YWHAB
T1 sequence (P31946 1-246): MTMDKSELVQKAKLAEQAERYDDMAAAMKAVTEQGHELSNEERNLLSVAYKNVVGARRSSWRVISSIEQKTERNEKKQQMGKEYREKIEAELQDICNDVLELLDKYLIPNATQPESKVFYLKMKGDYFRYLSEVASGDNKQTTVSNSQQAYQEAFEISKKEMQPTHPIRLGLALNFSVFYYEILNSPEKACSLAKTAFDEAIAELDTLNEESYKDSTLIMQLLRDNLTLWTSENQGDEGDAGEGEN
Protocol: Epoxy-activated Sepharose 6B (Cytia, Washington, DC, USA) affinity media was used to bind KA molecules following the media’s absorbency swelling. The Sepharose 6B media was co-incubated with KA or DMSO and gently agitated overnight at room temperature. The product was then thoroughly washed through at least three cycles. Any remaining active groups were blocked using 1 M ethanolamine, incubated for 4 h at 37 °C. The 6B media, now bound with KA or DMSO, were further incubated with the cell lysate sample overnight, with gentle agitation at 4 °C. The media was washed again through a minimum of three cycles. A suitable amount of loading buffer was added, and the samples were heated in a 100 °C water bath for 15 min. The resulting supernatant was then ready for use in SDS-PAGE electrophoresis.

[8] = system: nuclear translocation of ERK; assay: ERK nuclear translocation (nuclear/cytoplasmic extraction, immunofluorescence); type: cell-based, human; details: 10 μM, 48 h, confocal microscopy
Protocol: After treating HCC cells with KA or DMSO, the cells were collected by cell scraping. Adding an appropriate amount of PMSF and reagent A (Nuclear and Cytoplasmic Protein Extraction Kit, Beyotime, Shanghai, China). Vortexed and then ice bathed for 15 min. Adding the reagent B provided in the kit mentioned before. Then vortexed and ice bathed for 1 min. Vortexed again. Centrifuged at 14,000× g for 5 min. The supernatant was cytoplasmic protein. Adding a certain amount of nuclear protein extraction reagent to the precipitate. Multiple vortices within 30 min. Centrifuged at 14,000× g for 10 min. The obtained supernatant was the nuclear protein.

[9] = YWHAB-overexpressing HCC cells, KA 15 μM

SMILES: CC(C)=CCc1c(-c2ccc(O)c3c2OC(C)(C)C=C3)oc2cc(O)cc(O)c2c1=O [KA, Kuwanon A]
- E-cadherin level (Western blot) ([1]; MHCC97 H and SMMC 7721): upregulation of E-cadherin
- N-cadherin level (Western blot) ([1]; MHCC97 H and SMMC 7721): downregulation of N-cadherin
- N-cadherin/E-cadherin ratio under YWHAB overexpression [1, 9]: minimal changes
- survival time [2]: significantly extended
- HCC cell proliferation (continuous MTT) ([3]; 10 μM and 15 μM, vs DMSO): significantly inhibited HCC cell proliferation in a dose-dependent manner
- proliferation inhibition by KA under YWHAB overexpression (MTT) [3, 9]: partly reversed the proliferation inhibition
- proportion of proliferating HCC cells (EdU) ([4]; 48 h treatment): significant decrease in the proportion of proliferating HCC cells
- proliferation inhibition by KA under YWHAB overexpression (EdU) ([4]; YWHAB-overexpressing HCC cells, KA 15 μM, 48 h): partly reversed the proliferation inhibition
- in vitro colony formation ability under YWHAB overexpression [5, 9]: failed to inhibit the in vitro colony formation ability
- colony formation ability ([5]; indicated concentrations of KA, vs DMSO): significantly reduced colony formation ability
- wound healing (cell scratch assay) [6]: significant reduction in wound healing
- cell cycle arrest (flow cytometry) ([7]; concentration-dependent): significant G0/G1 phase arrest
- G0/G1 phase arrest under YWHAB overexpression ([7]; YWHAB-overexpressing cells, KA 15 μM): less KA-induced G0/G1 phase arrest
- interaction with YWHAB (pull-down) (YWHAB): direct interaction
- nuclear translocation of ERK [8]: inhibited the nuclear translocation of ERK
